Laboratory results reported in patent US20250360069A1, “SUNSCREEN COMPOSITION FOR LACTOBACILLUS AND S. EPIDERMIDIS PROTECTION ON SKIN” (DSM IP Assets B.V., priority 2022, published 2025).

How the values were obtained:
[1] = tested on: Staphylococcus epidermidis ATCC 12228; assay: In vitro UV model: bacterial survival upon UV irradiation (96-well, MPN count); assay type: cell-based; details: sample 20% v/v, UV 15 SED (150 mJ/cm^2 UVA+UVB), after 4 h; for S. epidermidis survival: compared to untreated and non-irradiated control
Experimental: (§1) The microbial strains used in this study are listed below and their cultures are reconstituted according to the direction of the supplier collection center of the reference strain, CRBIP (Institut Pasteur Collection, France) or ATCC (American Type Culture Collection, USA): • Lactobacillus crispatus CIP 103604 • Staphylococcus epidermidis ATCC 12228 The 96-well plate was filled with the culture media (140 μL) and a calibrated inoculum (20 μL) of each bacterial strain was added to reach […] colony forming units per milliliter (cfu/mL) final concentration. After contamination, the sample was added (40 μL; 20% v/v) in triplicate and was thoroughly mixed to ensure a homogeneous distribution. Then, the plate was submitted to UV stress through an UV irradiator system (BioSun, Vilber Lourmat, France) according to the UV doses presented Table 1 below. The specific UV dose selected was between 10 and 49% survival of the microbial population. For the microbial population counts, aliquots of the contaminated samples of L. crispatus and S. epidermidis were serially diluted (4 decimal dilutions followed by 8 binary dilutions, in triplicate) in culture media on 96-wells plates with triphenyltetrazolium. Then, the plates were incubated at 37° C.±2,5° C. during 48 h taking into account the respiratory type of each strain. After 48 h at the optimal growing conditions, the last dilution showing a pink color (triphenyltetrazolium) or turbidity indicated the contamination rate and allowed the determination of the decrease rate of microbial population (most probable number MPN method). Controls performed during this experiment were the culture medium with bacteria incubated without UV stress. The microbial population counts were expressed in cfu/mL and were the average of experiment done in triplicate. The use level of the single UV filter and combinations in the test formulations was calculated to obtain a predicted in vitro SPF value of 5.75+/−0.15 and 23.45+/−0.65, respectively (Table 2). The UV filters were mixed in the two oils, Tegosoft XC (55%) and Miglyol 829 Eco (ad100%) and the emulsifier Tween 80 (5%). The effect of selected UV irradiation conditions on the survival of microbial population of L. crispatus and S. epidermidis in the presence of the tested samples 1-10 at 20% v/v, was compared with the corresponding strain in the absence of samples 1-10 and without exposure to UV irradiation (control). The results after the 4-hour incubation were compared to the population of bacteria incubated without UV stress (determination of bacterial population survival) and were expressed in percentage of survival. The relative percentage of protection (%) was calculated from the difference between the survival percentages of samples and vehicle control (with UV irradiation) and divided to the survival percentage of the vehicle control. Consequently, the survival of each microbial population and the relative protection by the UV filter(s) were calculated and are summarized in the Table 2.

[2] = tested on: Lactobacillus crispatus CIP 103604; assay: as above; assay type: cell-based; details: sample 20% v/v, UV 50 SED (500 mJ/cm^2 UVA+UVB), after 4 h; for L. crispatus survival: compared to untreated and non-irradiated control
Experimental: as §1

SMILES | S. epidermidis relative protection by the UV filter(s) vs. vehicle control [1] | S. epidermidis survival [1] | L. crispatus relative protection by the UV filter(s) vs. vehicle control [2] | L. crispatus survival [2]
CCCCC(CC)COC(=O)C(C#N)=C(c1ccccc1)c1ccccc1 (stereo not shown) [Inv. 1, Octocrylene] | (+59) % | 63% | (+300) % | 50%
CCCCC(CC)COC(=O)c1ccccc1O (stereo not shown) [Ref. 1, Ethylhexyl Salicylate] | (+100) % | 79% | (+59) % | 20%
CCCCC(CC)COC(=O)c1ccc(Nc2nc(Nc3ccc(C(=O)OCC(CC)CCCC)cc3)nc(Nc3ccc(C(=O)OCC(CC)CCCC)cc3)n2)cc1 (stereo not shown) [Inv. 3, Ethylhexyl Triazone] | (+59) % | 63% | (+100) % | 25%
CCCCC(CC)COc1ccc(-c2nc(-c3ccc(OC)cc3)nc(-c3ccc(OCC(CC)CCCC)cc3O)n2)c(O)c1 (stereo not shown) [Ref. 2, Bis-Ethylhexyloxyphenol Methoxyphenyl Triazine] | (+100) % | 79% | (+59) % | 20%
